Marks after values point to notes of the source that are not given here.
How the values were obtained:
Format in all cases: in vivo
Alternaria solani = assay: Test B: preventive spray on tomato seedlings, tomato early blight, visual disease rating
Procedure: General protocol for preparing test suspensions for Tests A-G: the test compounds were first dissolved in acetone in an amount equal to 3% of the final volume and then suspended at the desired concentration (in ppm) in acetone and purified water (50/50 mix by volume) containing 250 ppm of the surfactant Trem® 014 (polyhydric alcohol esters). The resulting test suspensions were then used in Tests A-G. Each test was conducted in triplicate, and the results were averaged. Spraying a 200 ppm test suspension to the point of run-off on the test plants was the equivalent of a rate of 800 g/ha. Unless otherwise indicated, the rating values indicate a 200 ppm test suspension was used. (An asterisk “*” next to the rating value indicates a 40 ppm test suspension was used.) The test suspension was sprayed to the point of run-off on tomato seedlings. The following day the seedlings were inoculated with a spore suspension of Alternaria solani (the causal agent of tomato early blight) and incubated in a saturated atmosphere at 27° C. for 48 h, and then moved to a growth chamber at 20° C. for 5 days, after which time visual disease ratings were made. Results for Tests A-G are given in Table A. In the Table, a rating of 100 indicates 100% disease control and a rating of 0 indicates no disease control (relative to the controls). A hyphen (-) indicates no test results.

[1] = test system: Blumeria graminis f. sp. tritici; assay: Test G: preventive spray on wheat seedlings, wheat powdery mildew, visual disease rating;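 on all read-outs here: rated 8 days after spore dust inoculation at 20 °C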; conditions: for Test G rating (disease control) / pest or weed control at 200 ppm: 200 ppm test suspension, Blumeria graminis f. sp. tritici inoculated the day after spraying
Summary of the method: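 Wheat seedlings sprayed to run-off with 200 ppm suspension (about 800 g/ha; asterisked values 40 ppm) in acetone/water with 250 ppm Trem 014. Inoculated next day with B. graminis spore dust and held at 20 °C for 8 days. Visual rating, 0–100 % disease control versus controls; triplicate, averaged.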

Botrytis cinerea = assay: Test A: preventive spray on tomato seedlings, tomato Botrytis, visual disease rating; conditions: for Test A rating (disease control) / pest or weed control at 200 ppm: 200 ppm test suspension, Botrytis cinerea inoculated the day after spraying
Summary of the method: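 Tomato seedlings were sprayed to run-off with test suspension, 200 ppm (≈800 g/ha) unless marked 40 ppm, in acetone/water with surfactant. They were inoculated with Botrytis cinerea spores next day, held 48 h saturated at 20 °C, then 3 days at 24 °C. Disease control was rated visually, 0–100 relative to controls, in triplicate.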

Septoria nodorum = assay: Test C: preventive spray on wheat seedlings, Septoria glume blotch, visual disease rating; conditions: for Test C rating (disease control) / pest or weed control at 200 ppm: 200 ppm test suspension, Septoria nodorum inoculated the day after spraying
Summary of the method: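 Compounds suspended in acetone/water (50/50) with 250 ppm surfactant, sprayed to run-off at 200 ppm (40 ppm where marked); seedlings inoculated next day, held 48 h saturated at 24 °C, then 9 days at 20 °C. Visual rating 0–100% disease control versus controls, triplicate averaged.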

[2] = test system: Puccinia recondita f. sp. tritici; assay: Test E: spray after inoculation of wheat seedlings, wheat leaf rust, visual disease rating; conditions: sprayed after inoculation with Puccinia recondita f. sp. tritici
Procedure: General protocol for preparing test suspensions for Tests A-G: the test compounds were first dissolved in acetone in an amount equal to 3% of the final volume and then suspended at the desired concentration (in ppm) in acetone and purified water (50/50 mix by volume) containing 250 ppm of the surfactant Trem® 014 (polyhydric alcohol esters). The resulting test suspensions were then used in Tests A-G. Each test was conducted in triplicate, and the results were averaged. Spraying a 200 ppm test suspension to the point of run-off on the test plants was the equivalent of a rate of 800 g/ha. Unless otherwise indicated, the rating values indicate a 200 ppm test suspension was used. (An asterisk “*” next to the rating value indicates a 40 ppm test suspension was used.) Wheat seedlings were inoculated with a spore suspension of Puccinia recondita f. sp. tritici (the causal agent of wheat leaf rust) and incubated in a saturated atmosphere at 20° C. for 24 h, and then moved to a growth chamber at 20° C. for 2 days. At the end of this time the, the test suspension was sprayed to the point of run-off on the wheat seedlings, and then the seedlings were moved back to the growth chamber at 20° C. for 4 days. Upon removal, visual disease ratings were made. Results for Tests A-G are given in Table A. In the Table, a rating of 100 indicates 100% disease control and a rating of 0 indicates no disease control (relative to the controls). A hyphen (-) indicates no test results.

[3] = 200 ppm test suspension, Alternaria solani inoculated the day after spraying
[4] = Parastagonospora nodorum, 264 h

Row | Compound | Test B rating (disease control) (Alternaria solani; [3]) [%] | Test G rating (disease control) [1] [%] | Test A rating (disease control) (Botrytis cinerea) [%] | Test C rating (disease control) (Septoria nodorum) [%] | Test E rating (disease control) ([2]; 200 ppm test suspension) [%] | pest or weed control at 200 ppm ([1]; 192 h) [%] | pest or weed control at 200 ppm (Botrytis cinerea; 120 h) [%] | pest or weed control at 200 ppm (Septoria nodorum; [4]) [%] | Test B rating (disease control) (Alternaria solani; 40 ppm test suspension (asterisk), Alternaria solani) | pest or weed control at 40 ppm ([1]; 192 h, 40 ppm test suspension (asterisk), Blumeria graminis f. sp. tritici) [%] | pest or weed control at 40 ppm (Botrytis cinerea; 120 h, 40 ppm test suspension (asterisk), Botrytis cinerea) [%] | pest or weed control at 40 ppm (Septoria nodorum; Parastagonospora nodorum, 264 h, 40 ppm test suspension (asterisk), Septoria nodorum) [%] | Test E rating (disease control) ([2]; 40 ppm test suspension (asterisk))
1 | CCCNc1c(-c2ccc(Cl)cc2Cl)c(C)nn1C [Compound 3] | 21 | 0 | 65 | 0 | 0 | – | – | – | – | – | – | – | –
2 | Cc1nn(C)c(C(O)C2=CCCCC2)c1-c1c(F)cccc1F (centres unmarked) [Compound 10] | 99 | 85 | 99 | 0 | 0 | – | – | – | – | – | – | – | –
3 | CCCC(O)c1c(-c2c(F)cccc2F)c(C)nn1C (centres unmarked) [Compound 14] | 0 | 99 | 33 | 0 | 0 | – | – | – | – | – | – | – | –
4 | C=CCC(C)(C)C(O)c1c(-c2c(F)cccc2F)c(C)nn1C (centres unmarked) [Compound 12] | 32 | 99 | 0 | 0 | 0 | – | – | – | – | – | – | – | –
5 | Cc1nn(C)c(C(O)CC(C)C)c1-c1c(F)cccc1F (centres unmarked) [Compound 11] | 81 | 99 | 67 | 0 | 0 | – | – | – | – | – | – | – | –
6 | Cc1nn(C)c(NC2CCCCC2)c1-c1ccc(F)cc1F [Compound 6, N-cyclohexyl-4-(2,4-difluorophenyl)-1,3-dimethyl-1H-pyrazol-5-amine] | 99 | – | – | – | 68 | 91 | 99 | 0 | – | – | – | – | –
7 | Cc1nn(C)c(NCC(C)C)c1-c1ccc(Cl)cc1Cl [Compound 4, 4-(2,4-dichlorophenyl)-1,3-dimethyl-N-(2-methylpropyl)-1H-pyrazol-5-amine] | 94 | – | – | – | 26 | 93 | 99 | 0 | – | – | – | – | –
8 | CCC(C)C(O)c1c(-c2c(F)cccc2Cl)c(C)nn1C (stereo not drawn) [Compound 19, 4-(2-chloro-6-fluorophenyl)-1,3-dimethyl-α-(1-methylpropyl)-1H-pyrazole-5-methanol] | – | – | – | – | – | – | – | – | 0* % | 95 | 77 | 0 | 0* %
9 | Cc1nn(C)c(C(O)C(C)(C)CCC#N)c1-c1c(F)cccc1F (centres unmarked) [Compound 9] | 0 | 53 | 26 | 0 | 0 | – | – | – | – | – | – | – | –
10 | CCCCNc1c(-c2ccc(Cl)cc2Cl)c(C)nn1C [Compound 5, N-butyl-4-(2,4-dichlorophenyl)-1,3-dimethyl-1H-pyrazol-5-amine] | 0 | – | – | – | 79 | 58 | 98 | 0 | – | – | – | – | –
11 | Cc1nn(C)c(C(O)C(C)C)c1-c1ccc(F)cc1Cl (stereo not drawn) [Compound 2, 4-(2-chloro-4-fluorophenyl)-1,3-dimethyl-α-(1-methylethyl)-1H-pyrazole-5-methanol] | 0 | – | – | – | 26 | 97 | 100 | 0 | – | – | – | – | –
12 | Cc1nn(C)c(C(O)CC(C)C)c1-c1c(F)cccc1Cl (centres unmarked) [Compound 20] | 93 | 99 | 92 | 0 | 0 | – | – | – | – | – | – | – | –
13 | CCCCC(CC)C(O)c1c(-c2c(F)cccc2F)c(C)nn1C (centres unmarked) [Compound 13] | 0 | 96 | 0 | 0 | 0 | – | – | – | – | – | – | – | –
14 | CCCC(O)c1c(-c2c(F)cccc2Cl)c(C)nn1C (centres unmarked) [Compound 21] | 56 | 99 | 75 | 0 | 0 | – | – | – | – | – | – | – | –
15 | CCC(C)C(O)c1c(-c2ccc(F)cc2Cl)c(C)nn1C (stereo not drawn) [Compound 8, 4-(2-chloro-4-fluorophenyl)-1,3-dimethyl-α-(1-methylpropyl)-1H-pyrazole-5-methanol] | 99 | – | – | – | 0 | 99 | 95 | 0 | – | – | – | – | –
16 | CCC(C)C(O)c1c(-c2c(F)cccc2F)c(C)nn1C (centres unmarked) [Compound 15] | 99 | 99 | 67 | 0 | 9 | – | – | – | – | – | – | – | –
